Measured values taken from US4368267A, “Epoxidation of lower α-olefins” (priority 1980, dated 1983).

Experiments:
[1] = system: P(40), P(80), S(80) cell fractions of Methylosinus sp. (CRL-15, NRRL B-11,202); experiment: Oxidation of n-alkanes and n-alkenes by cell fractions; type: biochemical; details: for Uninhibited rate of oxidation: no inhibitor; for NADH Oxidized / O2 Consumed / Product Formed: substrate 5.0 μmoles; for Rate of Product Formation (substrate to 1,2-epoxide or alcohol) / 100% activity, product formed (storage study) / 100% activity, product formed (pH study) / 100% activity, product formed (temperature study): P(40) particulate fraction; for 100% activity, product formed (storage study): before storage at 0°-4° C.; for 100% activity, product formed (pH study): optimum pH 7.0; for 100% activity, product formed (temperature study): optimum temperature 35° C.
Experimental: (§1) Cells were washed twice with 25 mM potassium phosphate buffer, pH 7.0 containing 5 mM MgCl2. Cells were suspended in the same buffer. The cell suspensions at 4° C. were disintegrated by a single passage through a French Pressure cell (15,000 lb./in.^2) and centrifuged at 5000×g. for 15 min. to remove unbroken bacteria. The supernatant solution (crude extract) was then centrifuged at 40,000×g. for 30 min., yielding particulate P(40) and soluble S(40) fractions. The S(40) fraction was subsequently centrifuged at 80,000×g. for 60 min., yielding particulate P(80) and soluble S(80) fractions. The particulate fractions [P(40) and P(80)] were suspended in 25 mM potassium phosphate buffer, pH 7.0, containing 5 mM MgCl2 and homogenized at 4° C.
[…] The reaction mixtures contained in 1.0 ml: 150 mM potassium phosphate buffer, pH 7.0 containing 5 mM MgCl2, 0.6 ml; […] NADH, and cellular fraction.
(§2) Reaction mixtures were contained in 10 ml vials at 4° C. Vials were sealed with rubber caps. The gaseous phase in the vials was removed using vacuum and then was replaced with a gas mixture of methane or propylene and oxygen at a 1:1, v/v ratio. Oxidation of other gaseous n-alkanes and n-alkenes was examined as described above. For liquid substrates, 10 μl of substrate was used directly.
(§3) The products of epoxidation of n-alkenes and hydroxylation of n-alkanes were assayed by flame ionization gas chromatography using a stainless steel column (12'×1/8") packed with 10% Carbowax 20 M on 80/100 Chromosorb W and Porapak Q column. The column temperature was maintained isothermally at 120° C. The carrier gas flow rate was 30 ml/min. of helium. The various products were identified by retention time comparisons and co-chromatography with authentic standards.
(§4) Specific activities were expressed as μ moles of products formed per hour per mg. protein. Concentrations of protein in various fractions were determined by the method of Lowry et al., J. Biol. Chem. 193: 265-275 (1951).

[2] = system: P(40), P(80), S(80) cell fractions of Methylomonas sp. (CRL-17, NRRL B-11,208); experiment: Methane and propylene oxidation by cell fractions; type: biochemical; details: 30° C.
Experimental: as §1
(§5) The oxidation of methane and propylene by particulate [(P)40 and (P)80] fractions and soluble [S(80)] fraction was measured at 30° C. by estimating the production of methanol and propylene oxide, respectively. The reaction mixtures contained in 1.0 ml: 150 mM potassium phosphate buffer, pH 7.0 containing 5 mM MgCl2, 0.6 ml; […] NADH, and cellular fraction.
as §2, §3, §4

[3] = molecular target: T1, P(40), P(80), S(80) cell fractions of Methylococcus capsulatus (Texas, ATCC 19,069) (Methylococcus capsulatus, UniProt G1UBD1+Q603F1+Q607G3); experiment: Methane and propylene oxidation by cell fractions; type: biochemical
T1 sequence (G1UBD1 33-414): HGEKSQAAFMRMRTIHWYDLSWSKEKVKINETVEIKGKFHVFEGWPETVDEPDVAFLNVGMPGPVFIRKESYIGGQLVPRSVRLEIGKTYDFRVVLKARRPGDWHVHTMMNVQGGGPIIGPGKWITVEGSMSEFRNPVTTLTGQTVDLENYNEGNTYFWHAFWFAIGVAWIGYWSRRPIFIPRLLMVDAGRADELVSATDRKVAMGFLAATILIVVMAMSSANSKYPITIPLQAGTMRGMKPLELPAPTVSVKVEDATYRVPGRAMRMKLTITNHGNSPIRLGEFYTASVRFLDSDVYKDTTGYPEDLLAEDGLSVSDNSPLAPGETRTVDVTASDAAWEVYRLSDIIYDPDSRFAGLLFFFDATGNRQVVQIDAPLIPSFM
T1 sequence (Q607G3 1-247): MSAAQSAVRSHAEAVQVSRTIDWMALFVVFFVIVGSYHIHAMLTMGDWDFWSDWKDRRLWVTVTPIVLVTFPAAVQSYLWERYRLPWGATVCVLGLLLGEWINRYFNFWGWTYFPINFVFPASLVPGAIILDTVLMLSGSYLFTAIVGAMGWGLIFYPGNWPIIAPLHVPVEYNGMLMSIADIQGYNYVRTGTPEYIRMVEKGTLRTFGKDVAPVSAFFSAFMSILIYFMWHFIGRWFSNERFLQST
T1 sequence (Q603F1 1-260): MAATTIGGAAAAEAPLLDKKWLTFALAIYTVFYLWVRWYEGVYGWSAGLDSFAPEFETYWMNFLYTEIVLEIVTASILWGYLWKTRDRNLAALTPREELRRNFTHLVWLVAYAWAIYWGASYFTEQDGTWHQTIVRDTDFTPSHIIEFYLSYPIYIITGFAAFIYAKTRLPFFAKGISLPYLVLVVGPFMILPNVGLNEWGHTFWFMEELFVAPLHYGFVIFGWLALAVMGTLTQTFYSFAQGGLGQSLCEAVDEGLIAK
Experimental: as §1, §5, §2, §3, §4

[4] = system: P(40), P(80), S(80) cell fractions of Methylosinus trichosporium (OB3b, NRRL B-11,196); experiment: Methane and propylene oxidation by cell fractions; type: biochemical; details: S(80) fraction, 30° C.
Experimental: as §1, §5, §2, §3, §4

[5] = system: P(40), P(80), S(80) cell fractions of Methylobacterium sp. (CRL-26, NRRL B-11,222); experiment: Methane and propylene oxidation by cell fractions; type: biochemical; details: 30° C.
Experimental: as §1, §5, §2, §3, §4

[6] = system: Methylococcus capsulatus (CRL M1, NRRL B-11,219); experiment: Oxidation/epoxidation by washed cell suspensions; type: cell-based

C=CC [Propylene]
Propylene-Oxidizing Activity, P(40) ([1]; P(40) fraction, 30° C.): 3.8 μmoles of product formed per h
Uninhibited rate of oxidation ([1]; P(40) fraction): 4.1 μmoles per hr. per mg. of prot
NADH Oxidized ([1]; P(40) fraction): 5.0 µmol
O2 Consumed ([1]; P(40) fraction): 4.8 µmol
Product Formed ([1]; P(40) fraction): 4.5 µmol
Propylene Oxide Produced ([1]; P(40) fraction, substrate propylene alone): 4.3 μmoles/hr/mg. protein
Rate of Product Formation (substrate to 1,2-epoxide or alcohol) ([1]; 30° C.): 4.1 μmoles/hr/mg of protein
100% activity, product formed (storage study) [1]: 4.1 μmoles per hr. per mg. of prot
100% activity, product formed (pH study) [1]: 4.1 μmoles per hour, per mg protei
100% activity, product formed (temperature study) [1]: 4.2 μmoles per hour per mg of prot
Propylene-Oxidizing Activity, P(80) ([1]; P(80) fraction, 30° C.): 3.7 μmoles of product formed per h
Propylene-Oxidizing Activity, S(80) ([1]; S(80) fraction, 30° C.): 0 μmoles of product formed per h
Propylene-Oxidizing Activity, P(40) ([2]; P(40) fraction): 2.2 μmoles of product formed per h
Propylene-Oxidizing Activity, P(80) ([2]; P(80) fraction): 2.0 μmoles of product formed per h
Propylene-Oxidizing Activity, S(80) ([2]; S(80) fraction): 0 μmoles of product formed per h
% Distribution in Cell Fraction, Propylene-Epoxidizing Activity, P(40) ([3]; P(40) fraction): 89%
Propylene-Oxidizing Activity, P(40) ([3]; P(40) fraction, 30° C.): 2.6 μmoles of product formed per h
% Distribution in Cell Fraction, Propylene-Epoxidizing Activity, P(80) ([3]; P(80) fraction): 11%
Propylene-Oxidizing Activity, P(80) ([3]; P(80) fraction, 30° C.): 2.0 μmoles of product formed per h
% Distribution in Cell Fraction, Propylene-Epoxidizing Activity, S(80) ([3]; S(80) fraction): 0%
Propylene-Oxidizing Activity, S(80) ([3]; S(80) fraction, 30° C.): 0 μmoles of product formed per h
Propylene-Oxidizing Activity, S(80) [4]: 0 μmoles of product formed per h
Propylene-Oxidizing Activity, P(40) ([5]; P(40) fraction): 1.2 μmoles of product formed per h
Propylene-Oxidizing Activity, P(80) ([5]; P(80) fraction): 1.1 μmoles of product formed per h
Propylene-Oxidizing Activity, S(80) ([5]; S(80) fraction): 0 μmoles of product formed per h
Epoxidation Rate, Propylene oxide ([6]; propylene alone (control), 1 Hr, 50% O2): 2.0 μmoles/0.5 ml
Epoxidation Rate, Propylene oxide ([6]; propylene alone (control), 2 Hr): 3.8 μmoles/0.5 ml

C [Methane]
Methane-Oxidizing Activity, P(40) ([1]; P(40) fraction, 30° C.): 4.8 μmoles of product formed per h
Uninhibited rate of oxidation ([1]; P(40) fraction): 4.5 μmoles per hr. per mg. of prot
NADH Oxidized ([1]; P(40) fraction): 4.8 µmol
O2 Consumed ([1]; P(40) fraction): 4.6 µmol
Product Formed ([1]; P(40) fraction): 4.2 µmol
Propylene Oxide Produced ([1]; P(40) fraction, substrate Propylene + Methane (1:1, v/v)): 1.8 μmoles/hr/mg. protein
Propylene Oxide Produced ([1]; P(40) fraction, substrate methane alone): 0 μmoles/hr/mg. protein
Rate of Product Formation (substrate to 1,2-epoxide or alcohol) ([1]; 30° C.): 4.8 μmoles/hr/mg of protein
100% activity, product formed (storage study) [1]: 4.8 μmoles per hr. per mg. of prot
100% activity, product formed (pH study) [1]: 4.8 μmoles per hour, per mg protei
100% activity, product formed (temperature study) [1]: 5.0 μmoles per hour per mg of prot
Methane-Oxidizing Activity, P(80) ([1]; P(80) fraction, 30° C.): 4.2 μmoles of product formed per h
Methane-Oxidizing Activity, S(80) ([1]; S(80) fraction, 30° C.): 0 μmoles of product formed per h
Methane-Oxidizing Activity, P(40) ([2]; P(40) fraction): 2.9 μmoles of product formed per h
Methane-Oxidizing Activity, P(80) ([2]; P(80) fraction): 2.7 μmoles of product formed per h
Methane-Oxidizing Activity, S(80) ([2]; S(80) fraction): 0 μmoles of product formed per h
% Distribution in Cell Fraction, Methane-Hydroxylating Activity, P(40) ([3]; P(40) fraction): 90%
Methane-Oxidizing Activity, P(40) ([3]; P(40) fraction, 30° C.): 3.8 μmoles of product formed per h
% Distribution in Cell Fraction, Methane-Hydroxylating Activity, P(80) ([3]; P(80) fraction): 10%
Methane-Oxidizing Activity, P(80) ([3]; P(80) fraction, 30° C.): 3.9 μmoles of product formed per h
% Distribution in Cell Fraction, Methane-Hydroxylating Activity, S(80) ([3]; S(80) fraction): 0%
Methane-Oxidizing Activity, S(80) ([3]; S(80) fraction, 30° C.): 0 μmoles of product formed per h
Methane-Oxidizing Activity, S(80) [4]: 0 μmoles of product formed per h
Methane-Oxidizing Activity, P(40) ([5]; P(40) fraction): 2.7 μmoles of product formed per h
Methane-Oxidizing Activity, P(80) ([5]; P(80) fraction): 2.8 μmoles of product formed per h
Methane-Oxidizing Activity, S(80) ([5]; S(80) fraction): 0 μmoles of product formed per h
Epoxidation Rate, Propylene oxide ([6]; Propylene + 5% methane, 1 Hr): 2.0 μmoles/0.5 ml
Epoxidation Rate, Propylene oxide ([6]; Propylene + 5% methane, 2 Hr): 4.0 μmoles/0.5 ml
Epoxidation Rate, Propylene oxide ([6]; Propylene + 5% methane, 3 Hr): 4.1 μmoles/0.5 ml
Epoxidation Rate, Propylene oxide ([6]; Propylene + 7% methane, 1 Hr): 2.3 μmoles/0.5 ml
Epoxidation Rate, Propylene oxide ([6]; Propylene + 7% methane, 2 Hr): 4.7 μmoles/0.5 ml
Epoxidation Rate, Propylene oxide ([6]; Propylene + 7% methane, 3 Hr): 4.8 μmoles/0.5 ml
Epoxidation Rate, Propylene oxide ([6]; Propylene + 15% methane, 1 Hr): 3.5 μmoles/0.5 ml
Epoxidation Rate, Propylene oxide ([6]; Propylene + 15% methane, 2 Hr): 6.4 μmoles/0.5 ml
Epoxidation Rate, Propylene oxide ([6]; Propylene + 15% methane, 3 Hr): 6.5 μmoles/0.5 ml
Epoxidation Rate, Propylene oxide ([6]; Propylene + 20% methane, 1 Hr): 3.8 μmoles/0.5 ml
Epoxidation Rate, Propylene oxide ([6]; Propylene + 20% methane, 2 Hr): 7.1 μmoles/0.5 ml
Epoxidation Rate, Propylene oxide ([6]; Propylene + 20% methane, 3 Hr): 7.2 μmoles/0.5 ml
Inhibition of epoxidation of propylene to propylene oxide ([6]; cell suspension, in the presence of methane): 50%
